Drawing on patent US9783527B2, “Indazole ureas and method of use” (AbbVie Inc., priority 2014, dated 2017), this text covers IC50 for 26 compounds.

Sequence of human Nav1.7 (Q15858 whole entry): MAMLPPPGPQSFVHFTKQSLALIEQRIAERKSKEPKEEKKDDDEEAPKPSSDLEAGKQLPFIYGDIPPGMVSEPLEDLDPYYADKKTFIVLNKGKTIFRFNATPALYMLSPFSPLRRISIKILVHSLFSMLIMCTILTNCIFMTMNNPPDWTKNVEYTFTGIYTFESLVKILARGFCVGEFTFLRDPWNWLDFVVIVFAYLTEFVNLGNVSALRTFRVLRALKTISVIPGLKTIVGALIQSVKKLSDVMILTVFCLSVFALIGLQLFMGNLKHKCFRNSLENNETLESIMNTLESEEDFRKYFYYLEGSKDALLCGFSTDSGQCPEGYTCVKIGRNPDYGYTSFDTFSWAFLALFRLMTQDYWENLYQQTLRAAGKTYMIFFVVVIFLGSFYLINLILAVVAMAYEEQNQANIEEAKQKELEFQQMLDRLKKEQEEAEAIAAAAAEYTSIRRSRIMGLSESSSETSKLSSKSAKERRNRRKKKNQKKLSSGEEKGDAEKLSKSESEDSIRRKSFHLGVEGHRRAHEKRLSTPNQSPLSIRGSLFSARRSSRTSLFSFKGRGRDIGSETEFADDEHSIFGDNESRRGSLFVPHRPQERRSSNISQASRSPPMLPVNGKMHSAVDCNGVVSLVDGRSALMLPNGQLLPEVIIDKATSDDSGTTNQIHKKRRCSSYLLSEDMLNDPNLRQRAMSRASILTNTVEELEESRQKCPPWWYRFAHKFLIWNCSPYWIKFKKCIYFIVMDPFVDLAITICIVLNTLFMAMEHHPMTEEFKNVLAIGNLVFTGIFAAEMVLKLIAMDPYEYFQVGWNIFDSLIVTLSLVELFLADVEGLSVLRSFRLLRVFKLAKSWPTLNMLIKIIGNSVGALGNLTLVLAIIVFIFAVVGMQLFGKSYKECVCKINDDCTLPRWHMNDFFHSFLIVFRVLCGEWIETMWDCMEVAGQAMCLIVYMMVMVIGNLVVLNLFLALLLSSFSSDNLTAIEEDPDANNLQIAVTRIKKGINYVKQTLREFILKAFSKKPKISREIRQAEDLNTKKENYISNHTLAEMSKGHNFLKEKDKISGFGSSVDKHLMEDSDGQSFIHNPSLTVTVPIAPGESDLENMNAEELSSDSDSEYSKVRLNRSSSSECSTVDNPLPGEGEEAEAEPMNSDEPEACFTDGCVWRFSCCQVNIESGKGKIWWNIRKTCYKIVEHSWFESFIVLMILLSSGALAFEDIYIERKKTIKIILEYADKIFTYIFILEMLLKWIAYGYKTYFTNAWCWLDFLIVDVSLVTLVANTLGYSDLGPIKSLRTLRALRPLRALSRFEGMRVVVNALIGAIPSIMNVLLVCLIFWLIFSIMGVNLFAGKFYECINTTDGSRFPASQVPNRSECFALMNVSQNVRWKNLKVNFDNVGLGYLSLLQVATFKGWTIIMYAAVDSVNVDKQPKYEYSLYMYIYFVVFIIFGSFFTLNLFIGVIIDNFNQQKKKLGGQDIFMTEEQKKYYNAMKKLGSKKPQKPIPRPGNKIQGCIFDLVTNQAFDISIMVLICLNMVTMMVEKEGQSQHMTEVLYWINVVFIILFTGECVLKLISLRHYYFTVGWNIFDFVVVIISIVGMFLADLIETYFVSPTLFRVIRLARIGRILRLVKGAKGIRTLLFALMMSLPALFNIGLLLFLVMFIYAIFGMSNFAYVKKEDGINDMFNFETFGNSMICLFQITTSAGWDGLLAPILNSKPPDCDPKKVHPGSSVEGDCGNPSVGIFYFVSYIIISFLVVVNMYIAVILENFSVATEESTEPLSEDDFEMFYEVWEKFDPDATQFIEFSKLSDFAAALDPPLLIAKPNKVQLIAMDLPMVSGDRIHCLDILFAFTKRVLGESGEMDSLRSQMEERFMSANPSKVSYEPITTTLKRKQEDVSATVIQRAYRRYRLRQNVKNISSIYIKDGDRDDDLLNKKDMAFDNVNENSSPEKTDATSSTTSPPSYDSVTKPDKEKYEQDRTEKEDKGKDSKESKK

This assay has as its target human Nav1.7 (Homo sapiens (Human), UniProt Q15858). Kind of assay: FRET-based membrane potential assay, recombinant human sodium channel Nav1.7. The format is cell-based. The following applies: HEK293 cells stably expressing recombinant human Nav1.7; depolarization with veratridine (EC80) + scorpion venom. The essentials:
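IC50 derived by four-parameter Hill fit of percent inhibition of depolarization, measured as peak F440-480/F565-625 ratio over baseline. Stable human Nav1.7 HEK293 cells, dye-loaded with CC2-DMPE and DiSBAC2(3)/VABSC-1 at room temperature, received compound 3 min ahead of veratridine (EC80) plus scorpion venom.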
As usually defined, the IC50 is the concentration at which inhibition is half-maximal. With `CC(C)(C)C(=O)N1CCN(c2cccc3c2cnn3-c2ccccc2F)C1=O` [Example 60, 1-(2,2-dimethylpropanoyl)-3-[1-(2-fluorophenyl)-1H-indazol-4-yl]imidazolidin-2-one], the IC50 amounted to 1990 nM.

For the compound `O=C(CN1CCN(c2cccc3c2cnn3-c2ccccc2F)C1=O)c1ccc2c(c1)OCO2` [Example 153, 1-[2-(1,3-benzodioxol-5-yl)-2-oxoethyl]-3-[1-(2-fluorophenyl)-1H-indazol-4-yl]imidazolidin-2-one], the IC50 amounted to 1320 nM.

With `CC(C)(C)OC(=O)N1CC(N2CCN(c3cccc4c3cnn4-c3ccccc3F)C2=O)C1` [Example 267, tert-butyl 3-{3-[1-(2-fluorophenyl)-1H-indazol-4-yl]-2-oxoimidazolidin-1-yl}azetidine-1-carboxylate], the IC50 was 1090 nM.

Take `O=C(CN1CCN(c2cccc3c2cnn3-c2ccccc2F)C1=O)N1CCN2CCC[C@H]2C1` [Example 99, 1-[1-(2-fluorophenyl)-1H-indazol-4-yl]-3-{2-[(8aS)-hexahydropyrrolo[1,2-c]pyrazin-2(1H)-yl]-2-oxoethyl}imidazolidin-2-one]: the IC50 stood at 482 nM.

In the case of `O=C1N(CC2COC2)CCN1c1cccc2c1cnn2-c1ccccc1F` [Example 200, 1-[1-(2-fluorophenyl)-1H-indazol-4-yl]-3-(oxetan-3-ylmethyl)imidazolidin-2-one], the IC50 was found to be 3610 nM.

As for `NS(=O)(=O)CN1CCN(c2cccc3c2cnn3-c2ccccc2F)C1=O` [Example 58, 1-{3-[1-(2-fluorophenyl)-1H-indazol-4-yl]-2-oxoimidazolidin-1-yl}methanesulfonamide], the IC50 worked out at 2290 nM.

In the case of `O=C(CN1CCN(c2cccc3c2cnn3-c2ccccc2F)C1=O)N1CC2CCCC2C1` (centres unmarked) [Example 106, 1-[1-(2-fluorophenyl)-1H-indazol-4-yl]-3-[2-(hexahydrocyclopenta[c]pyrrol-2(1H)-yl)-2-oxoethyl]imidazolidin-2-one], the IC50 amounted to 635 nM.

`COC[C@H]1CCCN1C(=O)CN1CCN(c2cccc3c2cnn3-c2ccccc2F)C1=O` [Example 170, 1-[1-(2-fluorophenyl)-1H-indazol-4-yl]-3-{2-[(2R)-2-(methoxymethyl)pyrrolidin-1-yl]-2-oxoethyl}imidazolidin-2-one]: the IC50 is 795 nM.

`CC1(C)CC1NC(=O)CN1CCN(c2cccc3c2cnn3-c2ccccc2F)C1=O` (centres unmarked) [Example 328, N-(2,2-dimethylcyclopropyl)-2-{3-[1-(2-fluorophenyl)-1H-indazol-4-yl]-2-oxoimidazolidin-1-yl}acetamide]: the IC50 was 3020 nM.

In the case of `O=C1N(CC2CCCO2)CCN1c1cccc2c1cnn2-c1ccccc1F` (centres unmarked) [Example 182, 1-[1-(2-fluorophenyl)-1H-indazol-4-yl]-3-(tetrahydrofuran-2-ylmethyl)imidazolidin-2-one], the IC50 is 2620 nM.

Take `CC(C)CNC(=O)CN1CCN(c2cccc3c2cnn3-c2ccccc2F)C1=O` [Example 92, 2-{3-[1-(2-fluorophenyl)-1H-indazol-4-yl]-2-oxoimidazolidin-1-yl}-N-isobutylacetamide]: the IC50 came to 1860 nM.

With `O=C1N(Cc2cc(C(F)(F)F)ccn2)CCN1c1cccc2c1cnn2-c1ccccc1F` [Example 97, 1-[1-(2-fluorophenyl)-1H-indazol-4-yl]-3-{[4-(trifluoromethyl)pyridin-2-yl]methyl}imidazolidin-2-one], the IC50 worked out at 2390 nM.

Regarding `CS(=O)(=O)N1CC(N2CCN(c3cccc4c3cnn4-c3ccccc3F)C2=O)C1` [Example 271, 1-[1-(2-fluorophenyl)-1H-indazol-4-yl]-3-[1-(methylsulfonyl)azetidin-3-yl]imidazolidin-2-one], the IC50 worked out at 3450 nM.

Take `O=C(CN1CCN(c2cccc3c2cnn3-c2ccccc2F)C1=O)N1CC(F)C(F)C1` (centres unmarked) [Example 206, 1-[2-(3,4-difluoropyrrolidin-1-yl)-2-oxoethyl]-3-[1-(2-fluorophenyl)-1H-indazol-4-yl]imidazolidin-2-one]: the IC50 was found to be 1060 nM.

For `C[C@@H]1CN(c2cccc3c2cnn3-c2ccccc2F)C(=O)N1` [Example 246, (4R)-1-[1-(2-fluorophenyl)-1H-indazol-4-yl]-4-methylimidazolidin-2-one], the IC50 was 2980 nM.

As for `CC(C)[C@H]1CCCCN1C(=O)CN1CCN(c2cccc3c2cnn3-c2ccccc2F)C1=O` [Example 124, 1-[1-(2-fluorophenyl)-1H-indazol-4-yl]-3-{2-[(2R)-2-isopropylpiperidin-1-yl]-2-oxoethyl}imidazolidin-2-one], the IC50 amounted to 1200 nM.

Take `CC(C)S(=O)(=O)N1CCN(c2cccc3c2cnn3-c2ccccc2F)C1=O` [Example 82, 1-[1-(2-fluorophenyl)-1H-indazol-4-yl]-3-(isopropylsulfonyl)imidazolidin-2-one]: the IC50 was found to be 2460 nM.

For the compound `O=C1N(CC(=O)N2CCC[C@H]2C(F)(F)F)CCN1c1cccc2c1cnn2-c1ccccc1F` [Example 169, 1-[1-(2-fluorophenyl)-1H-indazol-4-yl]-3-{2-oxo-2-[(2S)-2-(trifluoromethyl)pyrrolidin-1-yl]ethyl}imidazolidin-2-one], the IC50 was 1070 nM.

Take `O=C1N(c2nccs2)CCN1c1cccc2c1cnn2-c1ccccc1F` [Example 221, 1-[1-(2-fluorophenyl)-1H-indazol-4-yl]-3-(1,3-thiazol-2-yl)imidazolidin-2-one]: the IC50 turned out to be 9500 nM.

Take `O=C1N(CCc2cccnc2)CCN1c1cccc2c1cnn2-c1ccccc1F` [Example 220, 1-[1-(2-fluorophenyl)-1H-indazol-4-yl]-3-[2-(pyridin-3-yl)ethyl]imidazolidin-2-one]: the IC50 is 1840 nM.

For `CN(CC1CCOCC1)C(=O)CN1CCN(c2cccc3c2cnn3-c2ccccc2F)C1=O` [Example 68, 2-{3-[1-(2-fluorophenyl)-1H-indazol-4-yl]-2-oxoimidazolidin-1-yl}-N-methyl-N-(tetrahydro-2H-pyran-4-ylmethyl)acetamide], the IC50 stood at 3570 nM.

`CC(C)C1CCCN1C(=O)CN1CCN(c2cccc3c2cnn3-c2ccccc2F)C1=O` (centres unmarked) [Example 116, 1-[1-(2-fluorophenyl)-1H-indazol-4-yl]-3-[2-(2-isopropylpyrrolidin-1-yl)-2-oxoethyl]imidazolidin-2-one]: the IC50 amounted to 821 nM.

Consider `O=C1N(Cc2ncco2)CCCN1c1cccc2c1cnn2-c1ccccc1F` [Example 255, 1-[1-(2-fluorophenyl)-1H-indazol-4-yl]-3-(1,3-oxazol-2-ylmethyl)tetrahydropyrimidin-2(1H)-one], for which the IC50 came out at 5510 nM.

With `Cc1scnc1CN1CCN(c2cccc3c2cnn3-c2ccccc2F)C1=O` [Example 245, 1-[1-(2-fluorophenyl)-1H-indazol-4-yl]-3-[(5-methyl-1,3-thiazol-4-yl)methyl]imidazolidin-2-one], the IC50 amounted to 207 nM.

On to `COc1cccc(C(=O)CN2CCN(c3cccc4c3cnn4-c3ccccc3F)C2=O)c1` [Example 149, 1-[1-(2-fluorophenyl)-1H-indazol-4-yl]-3-[2-(3-methoxyphenyl)-2-oxoethyl]imidazolidin-2-one], for which the IC50 amounted to 2970 nM.

For `O=C1N(Cc2ncco2)CCN1c1cccc2c1cnn2-c1ccc(C(F)(F)F)cc1` [Example 235, 1-(1,3-oxazol-2-ylmethyl)-3-{1-[4-(trifluoromethyl)phenyl]-1H-indazol-4-yl}imidazolidin-2-one], the IC50 turned out to be 1130 nM.
